{"source": "patent US20220249457A1", "about": "“METHOD OF MODULATING RIBONUCLEOTIDE REDUCTASE” (CASE WESTERN RESERVE UNIVERSITY, priority 2019, published 2022)", "data": [{"tested_on": "normal mobilized peripheral blood progenitor cells", "test": "not given", "conditions": "previously characterized; cited from earlier work", "values": [{"smiles": "O=C(NN=Cc1c(O)ccc2ccccc12)c1ccccc1O", "note": "[NSAAH, Naphthyl Salicyl Acyl Hydrazone]", "cytotoxicity": "little measurable cytotoxicity"}]}, {"biological_target": "T1, hRRM1 (Homo sapiens, UniProt P23921)", "T1 construct": "made in house; host or cells: E. coli BL21 DE3 (RIL)", "T1 sequence (P23921 1-792)": "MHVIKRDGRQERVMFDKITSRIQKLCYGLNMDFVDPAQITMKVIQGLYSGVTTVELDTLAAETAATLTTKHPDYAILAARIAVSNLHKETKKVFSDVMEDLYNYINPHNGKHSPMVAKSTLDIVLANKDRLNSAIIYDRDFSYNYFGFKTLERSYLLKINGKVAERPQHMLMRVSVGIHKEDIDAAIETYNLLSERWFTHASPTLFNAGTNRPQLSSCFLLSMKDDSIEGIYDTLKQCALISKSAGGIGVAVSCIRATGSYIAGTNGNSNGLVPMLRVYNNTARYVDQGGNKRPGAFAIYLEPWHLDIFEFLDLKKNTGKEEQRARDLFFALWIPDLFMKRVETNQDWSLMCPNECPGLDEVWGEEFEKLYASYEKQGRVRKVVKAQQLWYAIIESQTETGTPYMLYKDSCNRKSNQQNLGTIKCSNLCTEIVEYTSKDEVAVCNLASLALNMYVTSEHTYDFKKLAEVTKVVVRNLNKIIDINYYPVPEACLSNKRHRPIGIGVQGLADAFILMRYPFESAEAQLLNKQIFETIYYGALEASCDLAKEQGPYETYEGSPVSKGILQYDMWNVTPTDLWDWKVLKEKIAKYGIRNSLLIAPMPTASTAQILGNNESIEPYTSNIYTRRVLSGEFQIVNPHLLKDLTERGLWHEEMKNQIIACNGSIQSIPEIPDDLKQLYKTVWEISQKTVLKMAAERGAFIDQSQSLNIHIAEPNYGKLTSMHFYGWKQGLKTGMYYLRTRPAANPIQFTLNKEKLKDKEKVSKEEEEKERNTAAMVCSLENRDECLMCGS", "test": "hRRM1 enzyme activity inhibition (RR radioactivity assay, boronate chromatography)", "type": "biochemical", "design": "key: Compounds which are found to have extremely high potency are classified as “****”; Compounds which are found to have very high potency of protein synthesis are classified as “***”", "conditions": "potency ranking by minimum concentration required to inhibit enzyme activity; six concentrations 1-100 μM incubated with hRRM1 30 minutes, diluted by a factor of 5", "procedure": "Activity measurements in Table 2 is performed as described below. Briefly, six concentrations of the compounds ranging from 1-100 μM of the compounds are incubated on ice with 2.5 μmol of hRRM1 for 30 minutes. The assay sample was then diluted by a factor of 5, and enzyme activity was assayed in triplicate. […] Activity measurements are based on the qualitative relation between the minimum concentration of compound required to produce inhibit enzyme activity. Potency activities are ranked as either extremely high, very high or significant. These activities are used to determine the activity ranking. Compounds which are found to have extremely high potency are classified as “****” Compounds which are found to have very high potency […] are classified as “***”. Compounds which are found to have significant potency are classified as\nIn assay buffer, six concentrations of the compounds ranging from 1-100 μM of the compounds are incubated on ice with 2.5 μmol of hRRM1 for 30 minutes. The assay sample was then diluted by a factor of 5, and enzyme activity was assayed in triplicate.\nThe IC50 are determined using, boronate chromatography. Six concentrations of the RRmod are studied ranging from 1-100 μM. The assay is repeated in triplicate. Data are fitted in GraphPad Prism 6.05 using a sigmoidal dose-response curve.", "values": [{"smiles": "c1cncc(-c2noc(-c3cccnc3)n2)c1", "Activity": "****"}, {"smiles": "Oc1ccccc1-c1cn(-c2ccccc2O)nn1", "Activity": "***"}, {"smiles": "Oc1ccccc1-c1nnc(-c2cc(-c3ccccc3)ccc2O)o1", "Activity": "***"}, {"smiles": "COc1ccccc1-c1nc(-c2ccccc2O)no1", "Activity": "****"}, {"smiles": "COc1ccccc1-c1noc(-c2ccccc2O)n1", "Activity": "***"}, {"smiles": "Oc1ccccc1-c1nc(-c2ccccc2-c2ccsc2)no1", "Activity": "***"}, {"smiles": "c1cncc(-c2noc(-c3ccco3)n2)c1", "Activity": "***"}, {"smiles": "Oc1ccc(Br)cc1-c1nnc(-c2cccnc2)o1", "Activity": "***"}, {"smiles": "Oc1ccccc1-c1noc(-c2cccnc2)n1", "Activity": "****"}, {"smiles": "COc1ccc(-c2cnc(-c3ccccc3O)s2)cc1", "Activity": "***"}, {"smiles": "Oc1ccccc1-c1cnc(-c2ccccc2O)s1", "Activity": "***"}, {"smiles": "Oc1ccccc1-c1noc(-c2cccs2)n1", "Activity": "***"}, {"smiles": "COc1ccc(-c2ccsc2)c(-c2nnc(-c3ccccc3O)o2)c1O", "Activity": "***"}, {"smiles": "COc1ccc(Br)c(-c2nnc(-c3ccccc3O)o2)c1O", "Activity": "***"}, {"smiles": "COc1ccc(-c2ccccc2)c(-c2nnc(-c3ccccc3O)o2)c1O", "Activity": "***"}, {"smiles": "Oc1ccccc1-c1nc(-c2ccccc2OCc2ccccc2)no1", "Activity": "***"}, {"smiles": "Oc1ccccc1-c1nnn(-c2ccccc2O)n1", "Activity": "***"}, {"smiles": "c1cncc(-c2noc(-c3cccs3)n2)c1", "Activity": "***"}, {"smiles": "Oc1ccccc1-c1nc(-c2ccccc2-c2ccccc2)no1", "Activity": "***"}, {"smiles": "Oc1ccccc1-c1nnc(-c2ccccc2O)o1", "Activity": "***"}, {"smiles": "Oc1ccccc1-c1nc(-c2ccccc2Br)no1", "Activity": "****"}, {"smiles": "c1cncc(-c2noc(-c3cnc4ccccc4c3)n2)c1", "Activity": "***"}, {"smiles": "Oc1ccccc1-c1c[nH]c(-c2ccccc2O)n1", "Activity": "***"}, {"smiles": "Oc1ccccc1-c1nc(-c2cccnc2)no1", "Activity": "****"}]}, {"biological_target": "T2, hRRM1 hexamers (Homo sapiens, UniProt P23921)", "T2 sequence (P23921 1-792)": "T1 sequence (P23921 1-792)", "test": "not given", "conditions": "cited from earlier work", "values": [{"smiles": "Nc1nc(Cl)nc2c1ncn2[C@@H]1O[C@H](CO)[C@@H](O)[C@@H]1F", "note": "[clofarabine, 2′-fluro-2′-deoxyarabinofuranosyl-2-chloroadenine]", "binding affinity": "nanomolar affinity"}]}]}
